From ChEMBL document CHEMBL1125364, “Thromboxane receptor antagonism combined with thromboxane synthase inhibition. 3. Pyridinylalkyl-substituted 8-[(arylsulfonyl)amino]octanoic acids” (J Med Chem, 1992)

Tests used:
Canis familiaris [1] = organism: Canis familiaris; assay: The compound was tested in vitro for its antagonistic activity against U 46619-induced contraction of saphenous vein in dog; agonist activity was observed at e-6 - e-7; conditions: Canis lupus familiaris, filed as agonist
Homo sapiens [2] = organism: Homo sapiens; assay: The compound was tested in vitro for its inhibitory activity against U 46619-induced aggregation of human platelet rich plasma (PRP).; assay type: functional
Homo sapiens [3] = organism: Homo sapiens; assay: The compound was tested in vitro for its inhibitory activity against U 46619-induced aggregation of washed human platelets.; assay type: functional
Thromboxane-A synthase = biological target: T1, Thromboxane-A synthase (Homo sapiens, UniProt P24557); assay: The compound was tested in vitro for its inhibitory activity against thromboxane synthase A2 (TXA2)
T1 sequence (P24557 whole entry): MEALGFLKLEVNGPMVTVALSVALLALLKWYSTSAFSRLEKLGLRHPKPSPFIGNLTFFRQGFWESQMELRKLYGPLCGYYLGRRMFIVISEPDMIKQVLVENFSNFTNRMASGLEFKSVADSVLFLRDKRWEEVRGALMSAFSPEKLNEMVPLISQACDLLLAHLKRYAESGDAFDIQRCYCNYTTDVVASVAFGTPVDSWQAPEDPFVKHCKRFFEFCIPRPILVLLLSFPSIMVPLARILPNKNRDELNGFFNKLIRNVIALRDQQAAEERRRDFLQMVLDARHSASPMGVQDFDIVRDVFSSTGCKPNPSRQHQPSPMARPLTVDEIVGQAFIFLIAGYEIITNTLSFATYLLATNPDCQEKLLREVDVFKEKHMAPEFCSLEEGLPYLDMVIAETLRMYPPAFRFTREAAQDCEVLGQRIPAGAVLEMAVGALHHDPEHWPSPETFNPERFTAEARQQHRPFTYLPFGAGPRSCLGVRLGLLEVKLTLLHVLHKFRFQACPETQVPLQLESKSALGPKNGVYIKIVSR

Canis familiaris [4] = organism: Canis familiaris; conditions: Canis lupus familiaris; Saphenous vein; filed as agonist
Canis familiaris [5] = organism: Canis familiaris; assay: The compound was tested in vitro for its inhibitory activity against U 46619-induced contraction of saphenous vein in dog.; assay type: functional; conditions: Canis lupus familiaris, read-out: pA2 (converted)

IC50 (Homo sapiens [2]) | IC50 (Homo sapiens [3]) | IC50 (Thromboxane-A synthase) | SMILES | pA2 (Canis familiaris [1]) | pA2 (Canis familiaris [4]) | Kb (Canis familiaris [5])
280 nM | 20 nM | 220 nM | O=C(O)CCCCCC(CNS(=O)(=O)c1ccc(Cl)cc1)c1cccnc1 (centres undefined) | Agonist | – | –
– | 1390 nM | 100 nM | O=C(O)CC(CCCCCNS(=O)(=O)c1ccc(Cl)cc1)CCCCc1cccnc1 (centres undefined) | – | – | –
600 nM | 27 nM | > 500 nM | O=C(O)CCCCCCC(NS(=O)(=O)c1ccc(Cl)cc1)c1cccnc1 (centres undefined) | – | Agonist | –
4600 nM | 220 nM | 20 nM | O=C(O)CCCC(CCCNS(=O)(=O)c1ccc(Cl)cc1)CCc1cccnc1 (centres undefined) | – | – | 1.74 nM
370 nM | 117 nM | 14 nM | O=C(O)CCCCC(CCNS(=O)(=O)c1ccc(Cl)cc1)Cc1cccnc1 (centres undefined) | – | – | 11.7 nM
– | 300 nM | 4 nM | O=C(O)C(CCCCCCNS(=O)(=O)c1ccc(Cl)cc1)CCCCCc1cccnc1 (centres undefined) | – | – | –
390 nM | 19 nM | 2 nM | O=C(O)CCC(CCCCNS(=O)(=O)c1ccc(Cl)cc1)CCCc1cccnc1 (centres undefined) | – | – | 1.26 nM
